In patent publication US5739359A, “Methods for preparing 1-deoxy paclitaxels” (Virginia Tech Intellectual Properties, Inc., priority 1997, dated 1998):

What was measured:
[1] = system: human colon carcinoma cells HCT-116; experiment: MTS in vitro cytotoxicity assay, HCT-116; type: cell-based; conditions: 72 h exposure
Procedure: Cells were plated at 4,000 cell/well in 96 well microliter plates and 24 hours later drugs were added and serial diluted. […] The greater the absorbance the greater the number of live cells.

[2] = system: paclitaxel-resistant cell line HCT116/VM46; experiment: cells; type: cell-based; conditions: Homo sapiens, HCT-116/VM46, 72 h, read-out: Cytotoxicity Assay IC50
Procedure: Cytotoxicity was assessed in HCT-116 and line HCT116/VM46 human colon carcinoma cells by MTS (3-(4,5-dimethylthiazol-2-yl)-5-(3-carboxymethoxyphenyl)-2-(4-sulphenyl)-2H-tetrazolium, inner salt) assay as reported in T. L. Riss, el. al., "Comparison of MTT, XTT, and a novel tetrazolium compound MTS for in vitro proliferation and chemosensitivity assays.," Mol. Biol. Cell 3 (Suppl.):184a, 1992. Cells were plated at 4,000 cell/well in 96 well microliter plates and 24 hours later drugs were added and serial diluted. The cells were incubated at 37° for 72 hours at which time the tetrazolium dye, MTS at 333 μg/ml (final concentration), in combination with the electron coupling agent phenazine methosulfate at 25 μM (final concentration) was added. A dehydrogenase enzyme in live cells reduces the MTS to a form that absorbs light at […] which can be quantitated spectrophotometrically. The greater the absorbance the greater the number of live cells. The results are expressed as an IC50, which is the drug concentration required to inhibit cell proliferation (i.e. absorbance at 450 nm) to 50% of that of untreated control cells. The IC50 values for compounds evaluated in this assay are evaluated in Table I.

[3] = in vivo animal models; cited from earlier work

CC(=O)O[C@@]12CO[C@@H]1C[C@@H]1OC(c3ccccc3)O[C@H]3[C@H](O)C4=C(C)[C@@H](OC(=O)[C@H](O)[C@@H](NC(=O)OC(C)(C)C)c5ccccc5)C[C@@H]([C@@H](OC(=O)c5ccccc5)[C@H]2[C@@]13C)C4(C)C (stereo partly drawn) [Compound 7b, 1-deoxy-9(R)-dihydrodocetaxel 7,9-benzylidene acetal] showed an IC50 [1] of 10.5 pM and an IC50 [2] of 29.6 pM.

For CC(=O)O[C@H]1C(=O)[C@@]2(C)[C@H]([C@H](OC(=O)c3ccccc3)[C@]3(O)C[C@H](OC(=O)[C@H](O)[C@@H](NC(=O)c4ccccc4)c4ccccc4)C(C)=C1C3(C)C)[C@]1(OC(C)=O)CO[C@@H]1C[C@@H]2O [paclitaxel], the IC50 [2] is listed as 225 pM and the “antitumor activity (in words)” value [3] is listed as “excellent antitumor activity”.

Compound CC(=O)O[C@@]12CO[C@@H]1C[C@@H]1OC(C)(C)O[C@H]3[C@H](O)C4=C(C)[C@@H](OC(=O)[C@H](O)[C@@H](NC(=O)c5ccccc5)c5ccccc5)C[C@@H]([C@@H](OC(=O)c5ccccc5)[C@H]2[C@@]13C)C4(C)C [Compound 7a, 10-Deacetyl-1-deoxy-9(R)-dihydropaclitaxel 7,9-acetonide] has an IC50 [2] of 11.5 pM.

In the case of CC(=O)O[C@@H]1C2=C(C)[C@@H](OC(=O)[C@H](O)[C@@H](NC(=O)OC(C)(C)C)c3ccccc3)C[C@@H]([C@@H](OC(=O)c3ccccc3)[C@@H]3[C@]4(OC(C)=O)CO[C@@H]4C[C@H](OC(C)=O)[C@@]3(C)[C@H]1OC(C)=O)C2(C)C [Compound 7c, 7,9,10-triacetyl-1-deoxy-9(R)-dihydrodocetaxel], the IC50 [2] is reported as 21.8 pM.
